Results reported in patent publication US9403832B2, “Pyrazolo[1,5-a]pyrimidine-based compounds, compositions comprising them, and methods of their use” (Lexicon Pharmaceuticals, Inc., priority 2012, dated 2016).

Experiments:
AAK1 [1] = molecular target: T1, AAK1 (Homo sapiens, UniProt Q2M2I8); assay: P81 filter plate assay; assay type: biochemical; conditions: full-length human AAK1, Mu2 substrate, 33P-ATP
T1 construct: NP_055726.2
Method in brief: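 Full-length human AAK1 (0.2 nM, 2×) was pre-incubated 10 min at RT with compounds (top concentration 96 μM in the dilution plate), then reacted 1 h at RT with full-length human Mu2 (0.2 μM, 2×), cold ATP (2 μM, 2×) and ³³P-ATP. Reactions were stopped with phosphoric acid and captured on P81 filters for scintillation counting.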

AAK1 [2] = molecular target: T1, AAK1; assay: HEK281 cell-based assay (CBA); conditions: HEK293F cells transfected with full length human AAK1 and AP2M1; phospho-mu2 Western blot; 3 hours incubation
Protocol: HEK293F cells were cultured in media containing DMEM (Gibco, cat. #11965), 10% FBS (SAFC Biosciences, cat. #12103C), 1× GPS (glutamine, penicillin and streptomycin). On day one, cells were plated on a 10 cm dish so that they are ˜80% confluent at time of transfection. Roughly 12 million cells were in a 10 cm dish at time of transfection. On day two, each dish was transfected with 48 ug DNA and 144 ul Lipofectamine 2000 (Invitrogen, cat. #11668-019). The DNA was comprised of a mixture (per 10 cm dish) containing 3 ug AAK1/HA/pIRES (full length human, NCBI accession no. NP_055726.2), 45 μg Flag/AP2MI/pcDNA (full length human), and 1.5 ml OPTI-MEM. The Lipofectamine 2000 is made up of a mixture (per 10 cm dish) containing 144 μl Lipofectamine 2000 and 1.5 ml OPTI-MEM. Each mixture was transferred to individual 15 ml tubes and incubated at RT for 5 minutes, and then the two mixes were combined and incubated at RT for 20 minutes.
Growth media was then aspirated from each 10 cm plate and replaced with 10 ml of DMEM+10% FBS (no GPS). Finally, 3 ml DNA/Lipofectamine mix was added to each 10 cm dish and mix gently followed by incubate of plate overnight at 37° C. and 5% CO2.
On day three, compounds were diluted in 100% DMSO at 1000× final concentration, followed by 3-fold serial dilutions for a total of 5 concentrations tested. Four compounds were tested per 10 cm dish. One ul of each compound dilution was then pipetted into a deep-well, 96-well plate, followed by addition of 500 μl DMEM+0.5% FBS into each well for a 2× final concentration of each compound. Cells were resuspended in a 10 cm dish by simple pipetting (HEK293 cells come off the plate that easy at this point) and then transferred to a 50 ml conical tube and pelleted by centrifugation at 1000 rpm for 5 min. Cell pellets were then resuspended in 2.75 ml DMEM+0.5% FBS per 10 cm dish and 100 μl of cell suspension transferred into each well of 96-well TC plate. Finally, 100 μl of 2× compound diluted in DMEM+0.5% FBS was then added into wells containing cell suspension for a 1× final concentration. Plates were then incubated at 37° C. and 5% CO2 for 3 hours followed by transferring of cell suspensions from each well into 12-tube PCR strips. The PCR strips were spun in a tip rack at 1000 rpm for 5 minutes to pellet cells and media was then removed by pipetting without disturbing the cell pellet.
To prepare for Western Blot analysis, cell pellets were resuspend in 40 ul 1× LDS-PAGE sample buffer (Invitrogen, cat.# NP0008)+2× Halt phophatase and protease inhibitor cocktail (Thermo Scientific, cat. #1861284), followed by sonicating each with microtip sonicator set at 5 for 8-10 seconds. Five ul of 10× NuPage Sample Reducing Agent (with 50 mM DTT) was to each sample followed by heat denaturing at 70 C for 10 min on PCR machine. A total of 10 μl per sample was loaded into each lane of a 4-20% Tris-Glycine Criterion 26-well gel (Biorad, cat. #345-0034) for the phospho-mu2 blot and 10 μl per lane in a 4-12% Bis-Tris (+MES buffer) NuPAGE 26-well gel (Invitrogen, cat.# WG1403BX10) for the mu2 blot. For controls, 2 ng of phospho-mu2 or 20 ng mu2/Flag proteins were loaded in the last well of each gel. After SDS-PAGE, samples on each gel were transferred to PVDF membrane using an iBlot and membranes were blocked for one hour in TBST+5% milk, followed by wash 3× for 5-10 min with TBST. Criterion gels were probed with rabbit anti-phospho-mu2 (1:5000; a rabbit polyclonal antibody produced by New England Peptide and affinity purified at Lexicon) in TBST+5% BSA, whereas, NuPAGE gels were probed with mouse anti-Flag (1:500; Sigma, cat.# F1804) in TBST+5% milk, and these primary antibodies were incubated overnight at 4° C. on a rocker.

T1 sequence (Q2M2I8 1-863 isoform Q2M2I8-2): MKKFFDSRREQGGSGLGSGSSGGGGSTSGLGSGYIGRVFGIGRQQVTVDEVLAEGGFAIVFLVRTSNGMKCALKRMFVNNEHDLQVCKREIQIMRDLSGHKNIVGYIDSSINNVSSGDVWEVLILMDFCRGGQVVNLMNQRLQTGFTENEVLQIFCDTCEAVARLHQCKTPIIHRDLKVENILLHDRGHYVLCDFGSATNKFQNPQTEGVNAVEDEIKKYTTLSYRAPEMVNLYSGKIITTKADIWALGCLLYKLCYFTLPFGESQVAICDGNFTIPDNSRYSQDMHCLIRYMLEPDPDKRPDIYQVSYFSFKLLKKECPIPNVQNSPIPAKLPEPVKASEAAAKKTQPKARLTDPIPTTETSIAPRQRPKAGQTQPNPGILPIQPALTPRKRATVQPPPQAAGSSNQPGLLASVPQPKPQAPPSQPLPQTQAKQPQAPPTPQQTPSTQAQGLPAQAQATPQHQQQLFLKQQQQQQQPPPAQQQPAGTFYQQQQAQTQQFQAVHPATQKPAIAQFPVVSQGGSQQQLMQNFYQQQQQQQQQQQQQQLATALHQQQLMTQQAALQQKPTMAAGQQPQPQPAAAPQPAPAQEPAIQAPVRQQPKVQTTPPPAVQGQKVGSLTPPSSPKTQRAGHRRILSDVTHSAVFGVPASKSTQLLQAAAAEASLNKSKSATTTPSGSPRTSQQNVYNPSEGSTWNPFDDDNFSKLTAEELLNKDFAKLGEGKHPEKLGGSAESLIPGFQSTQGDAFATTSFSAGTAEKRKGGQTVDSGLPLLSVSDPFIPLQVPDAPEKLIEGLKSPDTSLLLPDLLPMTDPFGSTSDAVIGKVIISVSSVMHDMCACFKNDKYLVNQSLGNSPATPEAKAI

## COCCOC(=O)N1CCN(c2ccn3ncc(-c4cc(F)ccc4OC)c3n2)CC1 [2-methoxyethyl 4-(3-(5-fluoro-2-methoxyphenyl)pyrazolo[1,5-a]pyrimidin-5-yl)piperazine-1-carboxylate]
AAK1 [1]
  IC50: ≤ 10 nM
AAK1 [2]
  IC50: ≤ 10 nM

## CC(C)[C@H](N)C(=O)N1CCN(c2ccn3ncc(-c4ccccc4)c3n2)CC1 [(S)-2-amino-3-methyl-1-(4-(3-phenylpyrazolo[1,5-a]pyrimidin-5-yl)piperazin-1-yl)butan-1-one]
AAK1 [1]
  IC50: ≤ 10 nM
AAK1 [2]
  IC50: ≤ 10 nM

## CCCOC(=O)N1CCN(c2ccn3ncc(-c4cc(F)cnc4OC)c3n2)CC1 [propyl 4-(3-(5-fluoro-2-methoxypyridin-3-yl)pyrazolo[1,5-a]pyrimidin-5-yl)piperazine-1-carboxylate]
AAK1 [1]
  IC50: ≤ 10 nM
AAK1 [2]
  IC50: ≤ 100 nM

## COc1ccc(F)cc1-c1cnn2ccc(N3CCN(C(=O)[C@@H](N)C(C)(C)C)CC3)nc12 [(S)-2-amino-1-(4-(3-(5-fluoro-2-methoxyphenyl)pyrazolo[1,5-a]pyrimidin-5-yl)piperazin-1-yl)-3,3-dimethylbutan-1-one]
AAK1 [1]
  IC50: ≤ 10 nM
AAK1 [2]
  IC50: ≤ 10 nM

## COCC(C)OC(=O)N1CCN(c2ccn3ncc(-c4cccnc4OC)c3n2)CC1 (stereo not drawn) [1-methoxypropan-2-yl 4-(3-(2-methoxypyridin-3-yl)pyrazolo[1,5-a]pyrimidin-5-yl)piperazine-1-carboxylate]
AAK1 [1]
  IC50: ≤ 10 nM
AAK1 [2]
  IC50: ≤ 10 nM

## COc1ncc(F)cc1-c1cnn2ccc(N3CCN(C(=O)O[C@@H]4CCOC4)CC3)nc12 [(R)-tetrahydrofuran-3-yl 4-(3-(5-fluoro-2-methoxypyridin-3-yl)pyrazolo[1,5-a]pyrimidin-5-yl)piperazine-1-carboxylate]
AAK1 [1]
  IC50: ≤ 10 nM
AAK1 [2]
  IC50: ≤ 10 nM

## COc1ncccc1-c1cnn2ccc(N3CCN(C(=O)N4CCCCC4)CC3)nc12 [(4-(3-(2-methoxypyridin-3-yl)pyrazolo[1,5-a]pyrimidin-5-yl)piperazin-1-yl)(piperidin-1-yl)methanone]
AAK1 [1]
  IC50: ≤ 10 nM
AAK1 [2]
  IC50: ≤ 100 nM

## COc1ncccc1-c1cnn2ccc(N3CCN(C(=O)[C@@H](N)CC(C)C)CC3)nc12 [(S)-2-amino-1-(4-(3-(2-methoxypyridin-3-yl)pyrazolo[1,5-a]pyrimidin-5-yl)piperazin-1-yl)-4-methylpentan-1-one]
AAK1 [1]
  IC50: ≤ 10 nM
AAK1 [2]
  IC50: ≤ 10 nM

## COc1ncc(F)cc1-c1cnn2ccc(N3CCN(C(=O)OC(C)(C)C)CC3)nc12 [tert-butyl 4-(3-(5-fluoro-2-methoxypyridin-3-yl)pyrazolo[1,5-a]pyrimidin-5-yl)piperazine-1-carboxylate]
AAK1 [1]
  IC50: ≤ 10 nM
AAK1 [2]
  IC50: ≤ 100 nM

## COc1ncccc1-c1cnn2ccc(N(C)C[C@@H]3CCCN3C(=O)OC(C)C)nc12 [(S)-isopropyl 2-(((3-(2-methoxypyridin-3-yl)pyrazolo[1,5-a]pyrimidin-5-yl)(methyl)amino)methyl)pyrrolidine-1-carboxylate]
AAK1 [1]
  IC50: ≤ 10 nM
AAK1 [2]
  IC50: ≤ 10 nM

## COc1ccccc1-c1cnn2ccc(N3CCN(C(=O)[C@@H](N)C(C)C)CC3)nc12 [(S)-2-amino-1-(4-(3-(2-methoxyphenyl)pyrazolo[1,5-a]pyrimidin-5-yl)piperazin-1-yl)-3-methylbutan-1-one]
AAK1 [1]
  IC50: ≤ 10 nM
AAK1 [2]
  IC50: ≤ 10 nM

## COCC(C)(C)OC(=O)N1CCN(c2ccn3ncc(-c4cccnc4OC)c3n2)CC1 [1-methoxy-2-methylpropan-2-yl 4-(3-(2-methoxypyridin-3-yl)pyrazolo[1,5-a]pyrimidin-5-yl)piperazine-1-carboxylate]
AAK1 [1]
  IC50: ≤ 10 nM
AAK1 [2]
  IC50: ≤ 1000 nM

## CC(C)(C)[C@H](N)C(=O)N1CCN(c2ccn3ncc(-c4ccccc4)c3n2)CC1 [(S)-2-amino-3,3-dimethyl-1-(4-(3-phenylpyrazolo[1,5-a]pyrimidin-5-yl)piperazin-1-yl)butan-1-one]
AAK1 [1]
  IC50: ≤ 10 nM
AAK1 [2]
  IC50: ≤ 100 nM

## COc1ncccc1-c1cnn2ccc(N3CCN(C(=O)O[C@@H]4CCOC4)CC3)nc12 [(R)-tetrahydrofuran-3-yl 4-(3-(2-methoxypyridin-3-yl)pyrazolo[1,5-a]pyrimidin-5-yl)piperazine-1-carboxylate]
AAK1 [1]
  IC50: ≤ 10 nM
AAK1 [2]
  IC50: ≤ 10 nM

## COc1ccccc1-c1cnn2ccc(N3CCN(C(=O)[C@@H](N)C(C)(C)C)CC3)nc12 [(S)-2-amino-1-(4-(3-(2-methoxyphenyl)pyrazolo[1,5-a]pyrimidin-5-yl)piperazin-1-yl)-3,3-dimethylbutan-1-one]
AAK1 [1]
  IC50: ≤ 10 nM
AAK1 [2]
  IC50: ≤ 10 nM

## COc1ncccc1-c1cnn2ccc(N3CCN(C(=O)OCC(F)(F)F)CC3)nc12 [2,2,2-trifluoroethyl 4-(3-(2-methoxypyridin-3-yl)pyrazolo[1,5-a]pyrimidin-5-yl)piperazine-1-carboxylate]
AAK1 [1]
  IC50: ≤ 10 nM
AAK1 [2]
  IC50: ≤ 10 nM

## COC[C@H](C)OC(=O)N1CCN(c2ccn3ncc(-c4cccnc4OC)c3n2)CC1 [(S)-1-methoxypropan-2-yl 4-(3-(2-methoxypyridin-3-yl)pyrazolo[1,5-a]pyrimidin-5-yl)piperazine-1-carboxylate]
AAK1 [1]
  IC50: ≤ 10 nM
AAK1 [2]
  IC50: ≤ 10 nM

## COc1nc(C)ccc1-c1cnn2ccc(N3CCN(C(=O)OC(C)(C)C)CC3)nc12 [tert-butyl 4-(3-(2-methoxy-6-methylpyridin-3-yl)pyrazolo[1,5-a]pyrimidin-5-yl)piperazine-1-carboxylate]
AAK1 [1]
  IC50: ≤ 10 nM
AAK1 [2]
  IC50: ≤ 10 nM

## COc1ncccc1-c1cnn2ccc(N3CCN(C(=O)[C@@H](N)C(C)(C)C)CC3)nc12 [(S)-2-amino-1-(4-(3-(2-methoxypyridin-3-yl)pyrazolo[1,5-a]pyrimidin-5-yl)piperazin-1-yl)-3,3-dimethylbutan-1-one]
AAK1 [1]
  IC50: ≤ 10 nM
AAK1 [2]
  IC50: ≤ 10 nM

## COc1nc(C)ccc1-c1cnn2ccc(N(C)CCCN(C)C(=O)OC(C)C)nc12 [isopropyl (3-((3-(2-methoxy-6-methylpyridin-3-yl)pyrazolo[1,5-a]pyrimidin-5-yl)(methyl)amino)propyl)(methyl)carbamate]
AAK1 [1]
  IC50: ≤ 10 nM
AAK1 [2]
  IC50: ≤ 100 nM

## COc1ncccc1-c1cnn2ccc(N3CCN(C(=O)OC(C)(C)C)CC3)nc12 [tert-butyl 4-(3-(2-methoxypyridin-3-yl)pyrazolo[1,5-a]pyrimidin-5-yl)piperazine-1-carboxylate]
AAK1 [1]
  IC50: ≤ 10 nM
AAK1 [2]
  IC50: ≤ 10 nM

## CC(C)[C@H](N)C(=O)N1CCN(c2ccn3ncc(-c4ccccc4F)c3n2)CC1 [(S)-2-amino-1-(4-(3-(2-fluorophenyl)pyrazolo[1,5-a]pyrimidin-5-yl)piperazin-1-yl)-3-methylbutan-1-one]
AAK1 [1]
  IC50: ≤ 10 nM
AAK1 [2]
  IC50: ≤ 10 nM

## COc1ccc(F)cc1-c1cnn2ccc(N3CCN(C(=O)OC(C)(C)C)CC3)nc12 [tert-butyl 4-(3-(5-fluoro-2-methoxyphenyl)pyrazolo[1,5-a]pyrimidin-5-yl)piperazine-1-carboxylate]
AAK1 [1]
  IC50: ≤ 10 nM
AAK1 [2]
  IC50: ≤ 10 nM

## COc1cc(C)c(F)cc1-c1cnn2ccc(N3CCN(C(=O)OC(C)C)CC3)nc12 [isopropyl 4-(3-(5-fluoro-2-methoxy-4-methylphenyl)pyrazolo[1,5-a]pyrimidin-5-yl)piperazine-1-carboxylate]
AAK1 [1]
  IC50: ≤ 10 nM
AAK1 [2]
  IC50: ≤ 10 nM
